According to ChEMBL document CHEMBL5518202, “Discovery of a Potent Nicotinamide Phosphoribosyltransferase Activator for Improving Aging-associated Dysfunctions” (J Med Chem, 2024):

Biological target: Nicotinamide phosphoribosyltransferase (Homo sapiens, UniProt P43490)
Experiment: Binding affinity to NAMPT (unknown origin) assessed as dissociation constant incubated for 30 mins by microscale thermophoresis analysis

Chain of Nicotinamide phosphoribosyltransferase (P43490 whole entry): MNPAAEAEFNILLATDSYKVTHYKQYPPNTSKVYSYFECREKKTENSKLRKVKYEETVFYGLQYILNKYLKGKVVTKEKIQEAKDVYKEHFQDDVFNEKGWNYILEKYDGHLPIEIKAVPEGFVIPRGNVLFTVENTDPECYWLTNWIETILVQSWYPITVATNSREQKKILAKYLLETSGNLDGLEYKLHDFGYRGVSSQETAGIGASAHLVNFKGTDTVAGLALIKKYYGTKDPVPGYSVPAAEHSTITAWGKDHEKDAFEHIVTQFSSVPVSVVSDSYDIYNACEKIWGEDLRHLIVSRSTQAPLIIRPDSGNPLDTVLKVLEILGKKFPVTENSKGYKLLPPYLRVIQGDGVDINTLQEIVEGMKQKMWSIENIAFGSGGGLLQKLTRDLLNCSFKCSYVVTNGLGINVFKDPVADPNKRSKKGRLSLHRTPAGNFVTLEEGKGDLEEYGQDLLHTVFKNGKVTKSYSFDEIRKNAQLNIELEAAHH

Kd: 6.82 µM
Structure (SMILES): O=C(NCc1ccncc1)Nc1ccc(S(=O)(=O)N2CC3CCC(C2)O3)cc1
